Consider four molecules from US20110293746A1, “Modulation of Gsk-3Beta and Method of Treating Proliferative Disorders” (Agency For Science, Technology and Research, priority 2004, published 2011).

Entries after “also recorded” stand apart in the source; their conditions may differ.

For one test, the system named is p53 in HCT116 cells. In words: p53 accumulation in cytosol and mitochondria (subcellular fractionation, Western blot). The class given is cell-based, Human. The following applies: after drug treatment. As for the experimental part: (§1) Western blotting, immunoprecipitation and microarray analysis: Cells were scraped, collected and lysed as described previously (Yu, Q., et al. Cancer Res, 62: 5743-5748, 2002). Briefly, cells were lysed with cell lysis buffer (0.3% NP40, 1 mM EDTA, 50 mM Tris-HCl (pH 7.4), 2 mM EGTA, 1% Triton X-100, […], 25 mM NaF, 1 mM Na3VO4, 2 mM AEBSF, 5 μg/ml aprotinin, 1 μg/ml leupeptin) for 30 minutes on ice, and the lysates were clarified by centrifugation at 12,000×g for 15 minutes at 4° C. Protein concentration was quantified (Bio-Rad, Hercules, Calif.) and protein samples (50 μg) were separated by SDS/PAGE and transferred onto Immobilon™ membranes (Millipore, Bedford, Mass.). Antibodies against the following proteins were used: p53 (DO-1), p21, PARP, GSK-α/β, α-Tubulin, and β-actin (Santa Cruz Biotechnology), Puma (Ab-1, Oncogene), Bax (Sigma), phosphor-(Ser9/21)-GSK-3α/β and Caspase-9 (Cell Signaling Technologies), phosphor-(Tyr216/279)-GSK-3α/β (Upstate Biotechnologies), cytochrome c (BD PharMingen). To detect Bax conformational change, cells were lysed in 1% Chaps buffer and the soluble fraction was immunoprecipitated with anti-Bax monoclonal antibody (6A7, BD, PharMingen), followed by immunoblotting with anti-Bax polyclonal antibody. Microarray analysis was performed as described (Kho, P. S., et al. J Biol Chem, 279: 21183-21192, 2004).
(§2) Subcellular fractionation: Cells were lysed in mitochondria lysis buffer (210 mM Mannitol, 70 mM Sucrose, 10 mM Hepes (pH, 7.4), 1 mM EDTA, protease inhibitor cocktail) with a Dounce homogenizer and subjected to centrifugation at 1000×g to pellet the nuclei. Post-nuclear supernatant was centrifuged at 10,000×g to pellet the mitochondria-enriched heavy membrane fraction, and the resulting supernatant was further centrifuged to obtain cytosolic fraction. Total proteins (30 μg) from cytosolic or mitochondrial fractions were subjected to immunoblot analysis.

The subject of the next test is HCT116 cells. The test can be described thus: FACS analysis of DNA content (sub-G1 apoptotic fraction). The class given is cell-based, Human. The following applies: for effect on ADR-treated cells (apoptosis): concentrations up to 20 μM, with ADR. As for the experimental part:
Cell culture and drug treatments: Human colon cancer cell line HCT116 and its derived isogenic p53^−/−, Puma^−/−, Bax^−/− and p53-inducible DLD cell lines were kindly provided by Dr. Bert Vogelstein (Johns Hopkins University, MD). RKO and RKO/E6 cells were from ATCC. Cells were cultured in DMEM containing 10% FBS. All culture reagents and media were from Invitrogen. 5-Fluorouracil, Adriamycin, etoposide and lithium chloride were purchased from Sigma. GSK-3β specific small molecule inhibitor LY2119301 was a gift from Eli Lilly (Indianapolis) and SB-216763, SB-415283 were obtained from BIOMOL.
FACS analysis of DNA content and caspase-3 activity: Cells were harvested and fixed in 70% ethanol. Fixed cells were stained with propidium iodide (50 μg/ml) after treatment with RNase (100 μg/ml). The stained cells were analyzed for DNA content by fluorescence-activated cell sorting (FACS) in a FACScalibur™ (Becton Dickinson Instrument, San Jose, Calif.). Cell cycle fractions were quantified using the CellQues™ software (Becton Dickinson). To measure caspase-3 activity, cells were fixed with Cytofix/Cytoperm™ solution (BD PharMingen) as instructed, and then stained with FITC-conjugated rabbit anti-active caspase-3 monoclonal antibody (BD PharMingen). Quantification of cells positive for the caspase-3 detection was performed by flow cytometry.
In general terms: A flow cytometer gives signals particle by particle.

The target of the next test is T1, GSK-3α (Homo sapiens, UniProt P49840).
T1 construct: endogenous in cells; host or cells: HCT116
In words: Immunoblot analysis of GSK-3 phosphorylation status in HCT116 cells. The note with it: HCT116 whole lysate immunoblot. The class given is cell-based. As for the experimental part:
(§3) Protein concentration was quantified (Bio-Rad, Hercules, Calif.) and protein samples (50 μg) were separated by SDS/PAGE and transferred onto Immobilon™ membranes (Millipore, Bedford, Mass.). […] To detect Bax conformational change, cells were lysed in 1% Chaps buffer and the soluble fraction was immunoprecipitated with anti-Bax monoclonal antibody (6A7, BD, PharMingen), followed by immunoblotting with anti-Bax polyclonal antibody.
as §2

A further test concerns the target T2, GSK-3β (Homo sapiens, UniProt P49841).
T2 construct: endogenous in cells; host or cells: HCT116
The description is as above. It counts as cell-based. As for the experimental part:
as §3, §2

The subject of test [1] is p53 and p53 targets in HCT116 cells. In words: Immunoblot analyses of p53 and p53 targets. The class given is cell-based, Human. The note with it: for cleavage of PARP: cells treated with genotoxic agents; for p53-mediated p21 induction / p53 accumulation / stability in response to DNA damage: with ADR, etoposide or 5-FU, HCT116 (LY2119301 also RKO). As for the experimental part:
as §1
A general note: Immunoblotting shows a protein as a band on a membrane.

The next test has as its system GSK-3α and GSK-3β. The note with it: in vitro, Coghlan et al. 2000; cited from earlier work.

T2 sequence (P49841 whole entry): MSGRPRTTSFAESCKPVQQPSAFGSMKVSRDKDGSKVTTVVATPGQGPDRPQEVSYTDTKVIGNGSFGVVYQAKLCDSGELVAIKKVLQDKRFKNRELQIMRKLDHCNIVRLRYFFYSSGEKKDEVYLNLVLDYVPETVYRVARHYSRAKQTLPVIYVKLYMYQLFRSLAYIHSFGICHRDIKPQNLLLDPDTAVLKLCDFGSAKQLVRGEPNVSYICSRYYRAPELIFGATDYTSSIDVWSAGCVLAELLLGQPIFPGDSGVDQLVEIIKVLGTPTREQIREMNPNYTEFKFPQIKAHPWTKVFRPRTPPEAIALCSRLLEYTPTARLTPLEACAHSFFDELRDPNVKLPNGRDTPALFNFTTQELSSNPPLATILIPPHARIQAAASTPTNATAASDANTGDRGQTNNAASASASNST
T1 sequence (P49840 whole entry): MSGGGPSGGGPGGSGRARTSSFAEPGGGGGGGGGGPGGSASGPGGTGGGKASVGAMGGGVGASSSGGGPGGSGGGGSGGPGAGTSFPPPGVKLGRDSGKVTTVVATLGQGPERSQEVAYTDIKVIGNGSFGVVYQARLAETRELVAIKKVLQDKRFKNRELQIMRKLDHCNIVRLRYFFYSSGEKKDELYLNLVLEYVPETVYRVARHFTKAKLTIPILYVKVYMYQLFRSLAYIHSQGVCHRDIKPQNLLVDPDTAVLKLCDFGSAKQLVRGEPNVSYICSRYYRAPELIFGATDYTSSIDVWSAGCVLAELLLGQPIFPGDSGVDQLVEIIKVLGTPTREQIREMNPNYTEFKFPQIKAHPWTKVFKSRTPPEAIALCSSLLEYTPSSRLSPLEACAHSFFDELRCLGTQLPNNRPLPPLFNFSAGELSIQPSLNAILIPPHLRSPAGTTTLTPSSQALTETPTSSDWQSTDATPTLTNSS

Regarding `O=c1[nH]cc(F)c(=O)[nH]1` [5-FU, 5-fluorouracil], in the test on p53 in HCT116 cells, the “time of p53 accumulation in the cytosol (not seen until)” value turned out to be 6 h and the “time of p53 accumulation in the mitochondria (as early as)” value is 2 h.
For the molecule `Cn1cc(C2=C(c3ccc(Cl)cc3Cl)C(=O)NC2=O)c2ccccc21` [SB-216763], the “effect on ADR-treated cells (apoptosis)” value with HCT116 cells is reported as “no effect”. On GSK-3α, the “activating tyrosine phosphorylation on GSK-3α” value is “reduced” and the “inhibitory serine 21 phosphorylation on GSK-3α” value is “induced”. Moreover, at GSK-3β (HCT116 whole lysate immunoblot), the “inhibitory serine 9 phosphorylation on GSK-3β” value was “slightly reduced”. Moreover, the “tyrosine phosphorylation of GSK-3β” value on GSK-3β (nuclear and cytoplasmic fractions) is “did not block”. Besides, in test [1], the “cleavage of PARP” value is on record as “did not induce”, the “p53-mediated p21 induction” value is reported as “no affect” and the “p53 accumulation / stability in response to DNA damage” value (“p53 accumulation / stability” below) was “no affect”. Moreover, in test [1] (listed as SB-126763), the “p53-mediated p21 induction” value is reported as “no effect” and the “p53 accumulation / stability” value is reported as “no effect”. The “inhibition of GSK-3α versus GSK-3β” value with GSK-3α and GSK-3β is on record as “equally effective”.
Take `O=C1NC(=O)C(c2ccccc2[N+](=O)[O-])=C1Nc1ccc(O)c(Cl)c1` [SB-415286]: in the test with HCT116 cells, the “effect on ADR-treated cells (apoptosis)” value is reported as “no effect”. Moreover, in test [1], the “cleavage of PARP” value is recorded as “did not induce”, the “p53-mediated p21 induction” value is reported as “no affect; also recorded: no effect” and the “p53 accumulation / stability” value is “no affect; also recorded: no effect”.
For the molecule `COc1cc([C@@H]2c3cc4c(cc3[C@@H](O[C@@H]3O[C@@H]5CO[C@@H](C)O[C@H]5[C@H](O)[C@H]3O)[C@H]3COC(=O)[C@H]23)OCO4)cc(OC)c1O` [etoposide], the “apoptosis by etoposide alone despite mitochondrial p53 accumulation” value in the test with HCT116 cells (etoposide without GSK-3β inhibitor) is given as “failed to induce apoptosis”. At GSK-3β (after etoposide treatment alone), the “levels and phosphorylation states of cytosolic and nuclear GSK-3α and GSK-3β” value is “no changes”. Further, in the test with p53 in HCT116 cells, the “time of p53 accumulation in the cytosol (not seen until)” value was determined as 6 h and the “time of p53 accumulation in the mitochondria (as early as)” value worked out at 2 h.
